# Results taken from ChEMBL document CHEMBL1154160, “Synthesis, antiviral activity, and stability of nucleoside analogs containing tricyclic bases” (Eur J Med Chem, 2009).
# How the values were obtained:
# [1] = system: Human alphaherpesvirus 1; assay: Antiviral activity against HSV1 F in african green monkey Vero cells by plaque reduction assay; format: functional, organism-based; settings: Human alphaherpesvirus 1, strain F
# [2] = system: Hepatitis C virus; assay: Antiviral activity against HCV in human Huh7 cells by RNA replicon assay; format: functional, organism-based, Hepacivirus hominis; settings: Huh-7
# [3] = system: PBMC; assay: (§1) Cytotoxicity against human PBMC cells; format: cell-based; settings: pbmc
# [4] = system: CCRF-CEM; assay: (§2) Cytotoxicity against human CEM cells; format: cell-based; settings: ccrf-cem
# [5] = system: Vero; assay: (§3) Cytotoxicity against african green monkey Vero cells; format: cell-based; settings: chlorocebus sabaeus, vero
# [6] = system: Human immunodeficiency virus; assay: Antiviral activity against HIV in human PBM cells; settings: Human immunodeficiency virus 1, PBMC
# [7] = as §1; format: cell-based; settings: PBMC cells
# [8] = as §2; format: cell-based, CCRF-CEM; settings: CEM (CCRF-CEM) cells
# [9] = as §3; format: cell-based; settings: chlorocebus sabaeus, Vero cells
structure (smiles),measurement,setting,value
COc1ccc(-c2cn3c(O)c4ncn(COCCO)c4nc3n2)cc1,EC50,[1],12.2 µM
same,EC90,[1],23.7 µM
N#Cc1ccc(-c2cn3c(=O)c4ncn([C@H]5CO[C@@H](CO)O5)c4nc3[nH]2)cc1,EC50,[2],> 10 µM
same,EC90,[2],> 10 µM
same,CC50,[3],> 100 µM
same,CC50,[4],> 100 µM
same,CC50,[5],> 100 µM
same,EC50,[6],69300 nM
same,EC90,[6],> 100 µM
CN(C)c1ccc(-c2cn3c(=O)c4ncn([C@H]5C=C[C@@H](CO)C5)c4nc3[nH]2)cc1,EC50,[2],> 10 µM
same,EC90,[2],> 10 µM
same,CC50,[3],24 µM
same,CC50,[4],> 100 µM
same,CC50,[5],> 100 µM
same,EC50,[6],110 nM
same,EC90,[6],0.47 µM
COc1ccc(-c2cn3c(=O)c4ncn([C@H]5CO[C@@H](CO)O5)c4nc3[nH]2)cc1,EC50,[2],> 10 µM
same,EC90,[2],> 10 µM
same,CC50,[3],> 100 µM
same,CC50,[4],> 100 µM
same,CC50,[5],> 100 µM
same,EC50,[6],3450 nM
same,EC90,[6],23.9 µM
CCc1cn2c(=O)c3ncn([C@H]4CO[C@@H](CO)O4)c3nc2[nH]1,EC50,[2],> 10 µM
same,EC90,[2],> 10 µM
same,CC50,[3],> 100 µM
same,CC50,[4],> 100 µM
same,CC50,[5],> 100 µM
same,EC50,[6],31500 nM
same,EC90,[6],> 100 µM
COc1cccc(-c2cn3c(=O)c4ncn([C@H]5CO[C@@H](CO)O5)c4nc3[nH]2)c1,EC50,[2],> 10 µM
same,EC90,[2],> 10 µM
same,CC50,[3],> 100 µM
same,CC50,[4],> 100 µM
same,CC50,[5],> 100 µM
same,EC50,[6],20700 nM
same,EC90,[6],89.6 µM
Nc1nc2c(ncn2[C@H]2C=C[C@@H](CO)C2)c(=O)[nH]1 [CARBOVIR],EC50,[2],> 10 µM
same,EC90,[2],> 10 µM
same,CC50,[3],7 µM
same,CC50,[4],> 100 µM
same,CC50,[5],> 100 µM
same,EC50,[6],43 nM
same,EC90,[6],0.29 µM
COc1ccc(-c2cn3c(=O)c4ncn([C@H]5C[C@H](N=[N+]=[N-])[C@@H](CO)O5)c4nc3[nH]2)cc1,EC50,[2],> 10 µM
same,EC90,[2],> 10 µM
same,CC50,[3],56.7 µM
same,CC50,[4],13.5 µM
same,CC50,[5],> 100 µM
same,EC50,[6],1300 nM
same,EC90,[6],7 µM
O=c1c2ncn([C@H]3CO[C@@H](CO)O3)c2nc2[nH]c(-c3ccc(Cl)cc3)cn12,EC50,[2],> 10 µM
same,EC90,[2],> 10 µM
same,CC50,[3],> 100 µM
same,CC50,[4],> 100 µM
same,CC50,[5],> 100 µM
same,EC50,[6],> 100000 nM
same,EC90,[6],> 100 µM
[N-]=[N+]=Nc1ccc(-c2cn3c(=O)c4ncn([C@H]5CO[C@@H](CO)O5)c4nc3[nH]2)cc1,EC50,[2],> 10 µM
same,EC90,[2],> 10 µM
same,CC50,[3],> 100 µM
same,CC50,[4],> 100 µM
same,CC50,[5],> 100 µM
same,EC50,[6],2600 nM
same,EC90,[6],11.4 µM
O=c1c2ncn([C@H]3C=C[C@@H](CO)C3)c2nc2[nH]c(-c3ccc(Br)cc3)cn12,EC50,[2],> 10 µM
same,EC90,[2],> 10 µM
same,CC50,[3],> 100 µM
same,CC50,[4],> 100 µM
same,CC50,[5],> 100 µM
same,EC50,[6],12300 nM
same,EC90,[6],43.2 µM
CN(C)c1ccc(-c2cn3c(=O)c4ncn([C@H]5C[C@H](N=[N+]=[N-])[C@@H](CO)O5)c4nc3[nH]2)cc1,EC50,[2],> 10 µM
same,EC90,[2],> 10 µM
same,CC50,[3],> 100 µM
same,CC50,[4],74.6 µM
same,CC50,[5],> 100 µM
same,EC50,[6],140 nM
same,EC90,[6],0.54 µM
CN(C)c1ccc(-c2cn3c(=O)c4ncn([C@@H]5O[C@H](CO)[C@@H](O)[C@@]5(C)O)c4nc3[nH]2)cc1,CC50,[4],> 100 µM
same,CC50,[5],> 100 µM
COc1ccc(-c2cn3c(=O)c4ncn([C@H]5C=C[C@@H](CO)C5)c4nc3[nH]2)cc1,EC50,[2],> 10 µM
same,EC90,[2],> 10 µM
same,CC50,[3],> 100 µM
same,CC50,[4],> 100 µM
same,CC50,[5],> 100 µM
same,EC50,[6],620 nM
same,EC90,[6],4.9 µM
Nc1nc2c(ncn2[C@H]2CO[C@@H](CO)O2)c(=O)[nH]1,EC50,[2],> 10 µM
same,EC90,[2],> 10 µM
same,CC50,[3],> 100 µM
same,CC50,[4],> 100 µM
same,CC50,[5],> 100 µM
same,EC50,[6],510 nM
same,EC90,[6],2.4 µM
C[C@@]1(O)[C@H](O)[C@@H](CO)O[C@H]1n1cnc2c(=O)[nH]c(N)nc21 [2'-B-METHYL-GUANOSINE],EC50,[2],2.3 µM
same,EC90,[2],7.8 µM
same,CC50,[7],> 100 µM
same,CC50,[8],> 100 µM
same,CC50,[9],> 100 µM
same,EC50,[6],> 100000 nM
same,EC90,[6],> 100 µM
O=c1c2ncn([C@H]3C=C[C@@H](CO)C3)c2nc2[nH]c(-c3ccsc3)cn12,EC50,[2],> 10 µM
same,EC90,[2],> 10 µM
same,CC50,[3],> 100 µM
same,CC50,[4],> 100 µM
same,CC50,[5],> 100 µM
same,EC50,[6],2600 nM
same,EC90,[6],15.5 µM
C[C@@]1(O)[C@H](O)[C@@H](CO)O[C@H]1n1cnc2c(=O)n3cc(-c4cccs4)[nH]c3nc21,EC50,[2],6.9 µM
same,EC90,[2],25.6 µM
same,CC50,[3],> 100 µM
same,CC50,[4],> 100 µM
same,CC50,[5],44.3 µM
same,EC50,[6],> 100000 nM
same,EC90,[6],> 100 µM
